Series [1] is described as follows: Caco-2 bidirectional assay (A-B and B-A) to study the effect of piperine (P-gp inhibitor) on the permeability. It counts as in vitro ADME. The settings on record: human. Here is the method:
(§1) Caco-2 cells were cultured in MEM media with 10% serum and seeded at a density of 75000 cells per mL and cultured for 21 days in a 24-well trans-well plate at 37° C., 5% CO2. The monolayer integrity was checked intermittently (Day 0-21) using Trans Epithelial Electric Resistance (TEER). Cells were treated with drugs as follows:
(§2) 2) Bidirectional Assay (A-B and B-A) to Study the Effect of Piperine (P-Gp Inhibitor) on the Permeability
(§3) For A-B, 400 μL samples were added to the wells as per the plate setup to the apical side in duplicates with 800 μL HBSS pH 7.4 in the basal wells. Samples were collected at 60, 90 and 120 minutes from the basal side. Mass balance samples at 0 and 120 minutes were collected from the apical side.
(§4) For B-A, 800 μL of the respective dilutions were added to the basal side in duplicates with 400 μL HBSS pH 7.4 in the apical wells. Samples were collected at 60, 90 and 120 minutes from the apical side. Mass balance samples at 0 and 120 minutes were collected from the basal side. The sample were analyzed on LCMS-MS.
(§5) At the end of the experiment the monolayer integrity was checked using and Lucifer yellow, calculating the % rejection of Lucifer yellow by incubating cells with 100 μg/mL Lucifer.
(§6) The apparent permeability (Papp) in units per second can be calculated by using the following equation,
(§7) For Lucifer yellow, % Lucifer Yellow Passage=[RFU(test)−RFU(blank)/RFU(equilibrium)−RFU(blank)]*100

For series [2], the system named is Caco-2 cells. Described as above. The series is classed as in vitro ADME. The conditions noted are these: across the caco-2 monolayer; conclusion in words. Here is the method:
as §1, §2, §3, §4, §5, §6, §7

Where [3] appears, read: Digoxin 10 μM, Caco-2 monolayer, HBSS pH 7.4.

What is called Papp A→B is how fast a substance crosses the layer from the apical side. Lower therefore signals slow passage. As a reminder, the Papp B→A is the apparent permeability from the basolateral to the apical side of a cell layer. As to `CO[C@H]1/C=C/O[C@@]2(C)Oc3c(C)c(O)c4c(O)c(c5c(nc6cc(C)ccn65)c4c3C2=O)NC(=O)/C(C)=C\C=C\[C@H](C)[C@H](O)[C@@H](C)[C@@H](O)[C@@H](C)[C@H](OC(C)=O)[C@@H]1C` [Rifaximin, [(2S,16Z,18E,20S,21S,22R,23R,24R,25S,26S,27S,28E)-5,6,21,23,25-pentahydroxy-27-methoxy-2,4,11,16,20,22,24,26-octamethyl-2,7 (epoxypentadeca-[1,11,13]trienimino)benzofuro[4,5-e]pyrido[1,2-a]-benzimidazole 1,15(2H)-dione,25-acetate]], in series [1] (Caco-2, pH 7.4), the Papp A→B at 120 min, 30 μM turned out to be 1.08 ×10⁻⁶ cm/s and the apparent permeability from basolateral to apical (Papp B→A) at 120 min, 30 μM is 6.17 ×10⁻⁶ cm/s. The Permeability classification entry in series [2] is “high”.
A word on the efflux ratio: it is a quotient of directional permeabilities that is used to spot active efflux. For `C[C@H]1O[C@@H](O[C@H]2[C@@H](O)C[C@H](O[C@H]3[C@@H](O)C[C@H](O[C@H]4CC[C@@]5(C)[C@H](CC[C@@H]6[C@@H]5C[C@@H](O)[C@]5(C)[C@@H](C7=CC(=O)OC7)CC[C@]65O)C4)O[C@@H]3C)O[C@@H]2C)C[C@H](O)[C@@H]1O` [Digoxin], the efflux ratio at 120 min, 10 μM in series [1] (Caco-2, pH 7.4, Digoxin 10 μM, Papp B-A/Papp A-B) amounted to 12. Also, in series [1] (setting [3]), the Papp A→B at 120 min, 10 μM turned out to be 0.829 ×10⁻⁶ cm/s and the Papp B→A at 120 min, 10 μM worked out at 9.97 ×10⁻⁶ cm/s.

The values are drawn from US11224591B2 (Cipla Limited, priority 2016, dated 2022).
